Data from patent publication US10214710B2, “Intercalated bleach compositions, related methods of manufacture and use” (The Clorox Company, priority 2013, dated 2019).

Legend:
[1] = Differential scanning calorimetry (DSC) thermodynamic stability and adjuvant compatibility; assay type: physicochemical
[2] = Relative ratings of solid hypochlorite bleach products; details: relative rating
[3] = pH buffering and hypochlorite release on HCl addition; assay type: physicochemical
Procedure: The buffering characteristics of the MIB compositions, as well as the ability to accelerate release of hypochlorite through addition of an acid were tested. It is believed that the MgO and/or Mg(OH)2 component present within the intercalated bleach compound acts to buffer the pH to a preferred region (e.g., about 8 to about 11.5) for enhanced hypochlorite stability. FIG. 4A plots the pH profile over time as hydrochloric acid (HCl) is added to the MIB aqueous solution at periodic intervals.
FIG. 4B plots the concentration of hypochlorite in solution (ppm of OCl) as a function of how many millimoles of HCl are added.
FIGS. 5A-5B plot similar data as described above with respect to FIGS. 4A-4B, but for a dibasic magnesium hypochlorite composition including 34% available chlorine by weight. […] As such, the dibasic magnesium hypochlorite is not capable of maintaining a relatively high pH for the solution, as are the MIB compositions. Such improved buffering capacity (i.e., the ability to maintain a higher pH for longer) greatly improves the stability of the bleach composition.

[4] = Humidity stability, storage at 80° F. and 80% relative humidity; assay type: physicochemical
Procedure: In addition to the stability testing described above, the magnesium intercalated bleach compositions were tested for their resistance to humidity (i.e., their ability to resist degradation upon exposure to humidity). The results were compared with the humidity stability of alternative solid hypochlorite releasing products, specifically dibasic magnesium hypochlorite and a mixture of calcium hypochlorite and magnesium oxide. […] As shown, the initial weight percent hypochlorite was measured. Some samples were stored open, while others were stored closed, and the weight percentage of remaining hypochlorite was measured after the 2 month storage.
Two MIB samples were tested.

Row | Compound | Bleach Stability [2] | Moisture Tolerance [2] | Solution Clarity [2] | further results
1 | [Ca+2].[O-]Cl.[O-]Cl [Calcium hypochlorite, calcium hypochlorite] | 3 | 3 | 3 | energy given off in exothermic decomposition ([1]; FIG. 7B): 401 J/g; decomposition reaction temperature ([1]; endothermic for MIB, exothermic for calcium hypochlorite): about 212 °C
2 | O=C1CN(Cl)C(=O)N1Cl [Dichlorohydantoin] | 5 | 1 | 1 | 
3 | [Li+].[O-]Cl [Li(OCl)2, lithium hypochlorite] | 1 | 3 | 5 | 
4 | O=c1nc([O-])n(Cl)c(=O)n1Cl.[Na+] [sodium dichloroisocyanurate] |  |  |  | exothermic decomposition reactions ([1]; temperature range of 10° C. to 200° C., FIG. 7C): no exothermic decomposition reactions
5 | Mg(OCl)2.2Mg(OH)2 [dibasic magnesium hypochlorite] |  |  |  | hypochlorite (bleach) release as a function of HCl added ([3]; FIG. 4B / 5B): not significantly aided by acid addition; pH (buffering) recovery after HCl addition ([3]; HCl added at periodic intervals, FIG. 4A / 5A): significantly slower and less complete; hypochlorite remaining, open sample ([4]; 2 months, 80° F., 80% relative humidity, stored open): ~0 % by weight; initial hypochlorite concentration ([4]; before the 2 month storage, FIG. 3A): about 25 % by weight
6 | Trichloromelamine |  | 3 | 1 | 
7 | sodium hypochlorite phosphate adduct [Na(OCl)2 phosphate adduct] | 1 | 3 | 5 | 
